Experimental findings from BindingDB's records for doi:10.1021/acs.jmedchem.1c00726 (University of Florida, 2021) are described below.

This assay deals with 5-hydroxytryptamine receptor 2B (Homo sapiens, UniProt P41595). Briefly: Displacement of [3H]LSD from human recombinant 5-HT2B receptor expressed in CHO cells by radioligand completion assay relative to control. (In general: Loss of bound radioactivity is the signal in a displacement assay; it reports binding, not function.)
Chain of 5-hydroxytryptamine receptor 2B (P41595 whole entry): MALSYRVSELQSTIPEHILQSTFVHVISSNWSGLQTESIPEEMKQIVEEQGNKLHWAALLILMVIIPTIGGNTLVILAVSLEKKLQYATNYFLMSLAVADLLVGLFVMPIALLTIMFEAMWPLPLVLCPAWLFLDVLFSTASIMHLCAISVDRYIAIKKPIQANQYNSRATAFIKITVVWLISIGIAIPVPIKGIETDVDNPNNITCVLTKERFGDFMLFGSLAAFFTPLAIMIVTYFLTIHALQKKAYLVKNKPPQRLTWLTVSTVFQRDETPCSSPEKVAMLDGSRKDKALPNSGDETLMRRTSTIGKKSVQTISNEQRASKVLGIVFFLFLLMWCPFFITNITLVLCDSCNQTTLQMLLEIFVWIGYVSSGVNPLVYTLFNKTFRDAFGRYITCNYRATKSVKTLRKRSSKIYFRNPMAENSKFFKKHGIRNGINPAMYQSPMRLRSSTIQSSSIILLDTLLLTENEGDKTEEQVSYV

Turning to `COc1cc(C[C@@H](C)N)c(OC)cc1I` [(R)-2-(4-iodo-2,5-dimethoxyphenyl)-1-methylethylamine], the Ki – broadly, a dissociation constant, usually derived from enzyme kinetics or from competition with a known ligand – is 2.2 nM.
